Data: ChEMBL document CHEMBL1201862, “PubChem BioAssay data set” (2004)
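The compound was tested at five concentrations on cells cultured in 96-well plates, with a 48-hour exposure period. Abbreviation: GI50, concentration required for 50% inhibition of growth.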 The source made the active and inactive calls. Rule as the data show it: active = GI50 up to about 1.1 µM and inactive = higher.

Legend:
Assay in all cases: NCI tumour cell line growth inhibition, 48 h
DMS-114 = test system: DMS-114
NCI-H226 = test system: NCI-H226
HCT-15 = test system: HCT-15
786-0 = test system: 786-0
COLO 205 = test system: COLO 205
IGROV-1 = test system: IGROV-1
HL-60 = test system: HL-60
LXFL 529 = test system: LXFL 529
K562 = test system: K562
KM12 = test system: KM12
RPMI-8226 = test system: RPMI-8226
SN12C = test system: SN12C
UO-31 = test system: UO-31
SK-MEL-28 = test system: SK-MEL-28
SF-539 = test system: SF-539
CAKI-1 = test system: CAKI-1
DLD-1 = test system: DLD-1
OVCAR-8 = test system: OVCAR-8
CCRF-CEM = test system: CCRF-CEM
SNB-78 = test system: SNB-78
UACC-257 = test system: UACC-257
SW-620 = test system: SW-620
M19-MEL = test system: M19-MEL
SK-MEL-2 = test system: SK-MEL-2
M14 = test system: M14
RXF 393 = test system: RXF 393
SNB-75 = test system: SNB-75
HT-29 = test system: HT-29
LOX IMVI = test system: LOX IMVI
XF498 = test system: XF498
SNB-19 = test system: SNB-19
A549 = test system: A549
NCI-H23 = test system: NCI-H23
SK-MEL-5 = test system: SK-MEL-5
HCC 2998 = test system: HCC 2998
DMS-273 = test system: DMS-273
Malme-3M = test system: Malme-3M
SK-OV-3 = test system: SK-OV-3
UACC-62 = test system: UACC-62
SF-295 = test system: SF-295
SF-268 = test system: SF-268
NCI-H522 = test system: NCI-H522
OVCAR-3 = test system: OVCAR-3
EKVX = test system: EKVX
TK-10 = test system: TK-10
HOP-62 = test system: HOP-62
MOLT-4 = test system: MOLT-4
SR = test system: SR
OVCAR-4 = test system: OVCAR-4
U-251 = test system: U-251
KM-20L2 = test system: KM-20L2
NCI-H460 = test system: NCI-H460
ACHN = test system: ACHN
OVCAR-5 = test system: OVCAR-5
HCT-116 = test system: HCT-116
HOP-92 = test system: HOP-92
A498 = test system: A498

With `CC1(C)c2ccccc2N2O[C@@H]3C(=O)N(c4ccccc4)C(=O)[C@@H]3C21c1ccccc1` (some centres undefined) the GI50 (DMS-114) was > 100 µM (inactive), the GI50 (NCI-H226) was > 100 µM (inactive) and the GI50 (HCT-15) was greater than 100 µM. For the same compound, the GI50 (786-0) was > 100 µM (inactive), the GI50 (COLO 205) was > 100 µM (inactive) and the GI50 (IGROV-1) was > 100 µM (inactive). For the same compound, the GI50 (HL-60) was 30.8 µM (inactive), the GI50 (LXFL 529) was > 100 µM (inactive) and the GI50 (K562) was 56.4 µM (inactive). For the same compound, the GI50 (KM12) was > 100 µM (inactive), the GI50 (RPMI-8226) was 57.7 µM (inactive) and the GI50 (SN12C) was > 100 µM (inactive). For the same compound, the GI50 (UO-31) was > 100 µM (inactive), the GI50 (SK-MEL-28) was > 100 µM (inactive) and the GI50 (SF-539) was > 100 µM (inactive). For the same compound, the GI50 (CAKI-1) was > 100 µM (inactive), the GI50 (DLD-1) was > 100 µM (inactive) and the GI50 (OVCAR-8) was > 100 µM (inactive). For the same compound, the GI50 (CCRF-CEM) was 52.8 µM (inactive), the GI50 (SNB-78) was > 100 µM (inactive) and the GI50 (UACC-257) was > 100 µM (inactive). The GI50 (SW-620) was > 100 µM (inactive), the GI50 (M19-MEL) was > 100 µM (inactive) and the GI50 (SK-MEL-2) was > 100 µM (inactive). For the same compound, the GI50 (M14) was > 100 µM (inactive), the GI50 (RXF 393) was 14.6 µM (inactive) and the GI50 (SNB-75) was 84.1 µM (inactive). For the same compound, the GI50 (HT-29) was > 100 µM (inactive), the GI50 (LOX IMVI) was > 100 µM (inactive) and the GI50 (XF498) was > 100 µM (inactive). The GI50 (SNB-19) was > 100 µM (inactive), the GI50 (A549) was > 100 µM (inactive) and the GI50 (NCI-H23) was > 100 µM (inactive). For the same compound, the GI50 (SK-MEL-5) was > 100 µM (inactive), the GI50 (HCC 2998) was > 100 µM (inactive) and the GI50 (DMS-273) was > 100 µM (inactive). For the same compound, the GI50 (Malme-3M) was > 100 µM (inactive), the GI50 (SK-OV-3) was > 100 µM (inactive) and the GI50 (UACC-62) was > 100 µM (inactive). The GI50 (SF-295) was > 100 µM (inactive), the GI50 (SF-268) was > 100 µM (inactive) and the GI50 (NCI-H522) was 41.1 µM (inactive). For the same compound, the GI50 (OVCAR-3) was > 100 µM (inactive), the GI50 (EKVX) was > 100 µM (inactive) and the GI50 (TK-10) was > 100 µM (inactive). For the same compound, the GI50 (HOP-62) was > 100 µM (inactive) and the GI50 (MOLT-4) was 47.8 µM (inactive).

For `CCOC(=O)c1cc(/C=C/C(C)=C/C(=O)OC)oc1C`, the GI50 (DMS-114) was > 100 µM (inactive), the GI50 (SR) was > 100 µM (inactive) and the GI50 (HCT-15) was greater than 100 µM. The GI50 (786-0) was > 100 µM (inactive), the GI50 (COLO 205) was > 100 µM (inactive) and the GI50 (IGROV-1) was > 100 µM (inactive). For the same compound, the GI50 (HL-60) was > 100 µM (inactive), the GI50 (OVCAR-4) was > 100 µM (inactive) and the GI50 (LXFL 529) was > 100 µM (inactive). For the same compound, the GI50 (K562) was > 100 µM (inactive), the GI50 (KM12) was > 100 µM (inactive) and the GI50 (RPMI-8226) was > 100 µM (inactive). For the same compound, the GI50 (U-251) was > 100 µM (inactive), the GI50 (UO-31) was > 100 µM (inactive) and the GI50 (SK-MEL-28) was > 100 µM (inactive). For the same compound, the GI50 (SF-539) was > 100 µM (inactive), the GI50 (CAKI-1) was > 100 µM (inactive) and the GI50 (DLD-1) was > 100 µM (inactive). The GI50 (OVCAR-8) was > 100 µM (inactive), the GI50 (CCRF-CEM) was > 100 µM (inactive) and the GI50 (SNB-78) was > 100 µM (inactive). For the same compound, the GI50 (UACC-257) was > 100 µM (inactive), the GI50 (SW-620) was > 100 µM (inactive) and the GI50 (M19-MEL) was > 100 µM (inactive). The GI50 (SK-MEL-2) was > 100 µM (inactive), the GI50 (M14) was > 100 µM (inactive) and the GI50 (SNB-75) was > 100 µM (inactive). For the same compound, the GI50 (KM-20L2) was > 100 µM (inactive), the GI50 (HT-29) was > 100 µM (inactive) and the GI50 (NCI-H460) was > 100 µM (inactive). For the same compound, the GI50 (LOX IMVI) was > 100 µM (inactive), the GI50 (XF498) was > 100 µM (inactive) and the GI50 (ACHN) was > 100 µM (inactive). The GI50 (SNB-19) was > 100 µM (inactive), the GI50 (A549) was > 100 µM (inactive) and the GI50 (NCI-H23) was > 100 µM (inactive). For the same compound, the GI50 (OVCAR-5) was > 100 µM (inactive), the GI50 (Malme-3M) was > 100 µM (inactive) and the GI50 (SK-OV-3) was > 100 µM (inactive). The GI50 (HCT-116) was > 100 µM (inactive), the GI50 (UACC-62) was > 100 µM (inactive) and the GI50 (SF-295) was > 100 µM (inactive). For the same compound, the GI50 (SF-268) was > 100 µM (inactive), the GI50 (NCI-H522) was 45.6 µM (inactive) and the GI50 (OVCAR-3) was > 100 µM (inactive). For the same compound, the GI50 (EKVX) was > 100 µM (inactive), the GI50 (TK-10) was > 100 µM (inactive) and the GI50 (HOP-62) was > 100 µM (inactive). The GI50 (MOLT-4) was > 100 µM (inactive) and the GI50 (HOP-92) was > 100 µM (inactive).

In the case of `CC(=O)CCCCO`, the GI50 (DMS-114) is reported as > 100 µM (inactive), the GI50 (HCT-15) is reported as greater than 100 µM and the GI50 (786-0) is reported as > 100 µM (inactive). The GI50 (COLO 205) was > 100 µM (inactive), the GI50 (A498) was > 100 µM (inactive) and the GI50 (IGROV-1) was > 100 µM (inactive). The GI50 (HL-60) was > 100 µM (inactive), the GI50 (OVCAR-4) was > 100 µM (inactive) and the GI50 (LXFL 529) was > 100 µM (inactive). For the same compound, the GI50 (K562) was > 100 µM (inactive), the GI50 (KM12) was > 100 µM (inactive) and the GI50 (RPMI-8226) was > 100 µM (inactive). The GI50 (SN12C) was > 100 µM (inactive), the GI50 (U-251) was > 100 µM (inactive) and the GI50 (UO-31) was > 100 µM (inactive). The GI50 (SK-MEL-28) was > 100 µM (inactive), the GI50 (SF-539) was > 100 µM (inactive) and the GI50 (CAKI-1) was > 100 µM (inactive). The GI50 (OVCAR-8) was > 100 µM (inactive), the GI50 (CCRF-CEM) was > 100 µM (inactive) and the GI50 (SNB-78) was > 100 µM (inactive). The GI50 (UACC-257) was > 100 µM (inactive), the GI50 (SW-620) was > 100 µM (inactive) and the GI50 (M19-MEL) was > 100 µM (inactive). The GI50 (SK-MEL-2) was > 100 µM (inactive), the GI50 (M14) was > 100 µM (inactive) and the GI50 (RXF 393) was > 100 µM (inactive). The GI50 (SNB-75) was > 100 µM (inactive), the GI50 (HT-29) was > 100 µM (inactive) and the GI50 (NCI-H460) was > 100 µM (inactive). For the same compound, the GI50 (LOX IMVI) was > 100 µM (inactive), the GI50 (XF498) was > 100 µM (inactive) and the GI50 (ACHN) was > 100 µM (inactive). The GI50 (SNB-19) was > 100 µM (inactive), the GI50 (A549) was > 100 µM (inactive) and the GI50 (NCI-H23) was > 100 µM (inactive). The GI50 (SK-MEL-5) was > 100 µM (inactive), the GI50 (DMS-273) was > 100 µM (inactive) and the GI50 (OVCAR-5) was > 100 µM (inactive). For the same compound, the GI50 (Malme-3M) was > 100 µM (inactive), the GI50 (SK-OV-3) was > 100 µM (inactive) and the GI50 (HCT-116) was > 100 µM (inactive). For the same compound, the GI50 (UACC-62) was > 100 µM (inactive), the GI50 (SF-295) was > 100 µM (inactive) and the GI50 (SF-268) was > 100 µM (inactive). The GI50 (NCI-H522) was > 100 µM (inactive), the GI50 (OVCAR-3) was > 100 µM (inactive) and the GI50 (EKVX) was > 100 µM (inactive). For the same compound, the GI50 (TK-10) was > 100 µM (inactive), the GI50 (HOP-62) was > 100 µM (inactive) and the GI50 (MOLT-4) was > 100 µM (inactive). For the same compound, the GI50 (HOP-92) was > 100 µM (inactive).
